The values that follow come from publication PMC12670313 (ACS Central Science, 2025).

The test concerns r(CUG)exp–MBNL1 complex. The test can be described thus: Live-cell NanoBRET assay in HeLa480 cells. Type of test: cell-based. The note with it: HeLa480 cells; for IC50: compound 16 h; for reduction of NanoBRET signal, dose response: up to 50 μM. The protocol: To optimize the assay, HeLa480 cells were cotransfected with plasmids encoding MBNL1 fused to HaloTag and NanoLuc in various donor to acceptor DNA ratios in a 6-well plate using 8 μL of FuGENE HD Transfection Reagent (Promega, catalog #E2311) in 110 μL of Opti-MEM (Giboco, catalog #31985070), following the manufacturer’s protocol. The transfection mix was incubated for 10 min at room temperature before being added to the cells. After incubating the cells for 20 h, they were trypsinized from the surface, resuspended in an appropriate volume of assay medium (Opti-MEM + 4% (v/v) FBS), and counted using trypan blue (Corning, catalog #25-900-CI) and the Countess 3 Automated Cell Counter (Invitrogen, catalog #AMQAX2000) to determine cell viability and total cell number. The cell suspension was then diluted to the desired concentration and reseeded into white 96-well tissue culture plates (Corning, catalog #3903) where 100 μL of growth medium containing 200 nM HaloTag NanoBRET 618 Ligand (Promega, catalog #N1662) was added to each well, delivering 1.6 × 10^4 transfected cells (affording ∼70% confluency). [Note: in each experiment, cells were delivered only in 100 μL of growth medium to three wells as no HaloTag ligand controls.] The cells were then incubated overnight at 37 °C with 5% CO2 to facilitate specific binding to the HaloTag fusion protein.
The following day, NanoLuc substrate and 20 μM extracellular NanoLuc inhibitor were added to the wells. For a 96-well plate, 2.5 mL of Opti-MEM were mixed with 25 μL of NanoLuc substrate (Promega, catalog #N1662) and 8.3 μL of extracellular NanoLuc inhibitor (Promega, catalog #N2160). Then, 25 μL of this mixture was added to each well, resulting in final concentrations of 1× NanoLuc substrate and 20 μM extracellular NanoLuc inhibitor in the assay medium and mixed at room temperature. The interaction between MBNL1 and r(CUG)480 was measured by detecting the BRET signal using the GloMax Discover System (Promega, catalog #GM3000). Dual-filtered luminescence was collected with a 460/80 nm bandpass filter for the donor (NanoLuc protein) and a 610 nm long-pass filter for the acceptor (HaloTag ligand) using an integration time of 500 ms. The corrected NanoBRET ratio, expressed in milliBRET units (mBU), was calculated using eq : 1 Corrected NanoBRET Ratio=HaloTag ligand(Emission610nm/LP)/Donor Luminescence(Emission450nm/BP80nm)−No Ligand Control(Emission610nm/LP)/Donor Luminescence(Emission450nm/BP80nm)
NanoBRET inhibition rate was calculated using eq : 2 Inhibitionrate=RatioDMSO−Ratiosample/RatioDMSO−RatioWT×100% In all subsequent assays, a ratio of […] MBNL1–HaloTag:MBNL1–NanoLuc plasmids (2.5 μg HaloTag and 50 ng NanoLuc) was used as described.
The CAG25 Vivo-Morpholino was added directly to the cell culture medium (without the need for a transfection reagent) at the recommended final concentration of 10 μM, according to the manufacturer’s guidelines. It was dissolved in RNase-free water and stored at room temperature before use. The Vivo-Morpholino was added 4 h after the cells had been reseeded into the 96-well plate. Cells were then incubated with the Vivo-Morpholino for 16 h before NanoBRET signal detection.
Plasmids encoding MBNL1 fusion proteins were first transfected into HeLa480 cells cultured in 6-well plates (∼80% confluency; as described in “NanoBRET Assay: Determining the Optimal Placement of the Fusion (N- or C-Terminus) and Plasmid Ratios”). Approximately 24 h later, the transfected cells were reseeded into 96-well plates (Corning, catalog #3903) at a density of 1.6 × 10^4 cells per well in 90 μL of growth medium, affording an approximate confluency of ∼70%. The cells were incubated at 37 °C for 4 h to allow adherence to the plate. […]

Values joined by “and” are separate entries in the source; they are usually repeats but may differ in a detail not shown here. Equal values may be shown once. “Also recorded” adds a separate entry of the source. Where only a bound is given, the exact number is not on record here.

For `COc1ccccc1CNC(=O)c1cc2c(N3CCSCC3)nc(C)cn2n1` [B2], the IC50 is > 50 µM and the “reduction of NanoBRET signal, dose response” value (shortened to “reduction of NanoBRET signal”) is “activity only at the highest dose”.
Take `COc1ccc(CCNC(=O)c2cc3c(N4CCCC4)nc(C)cn3n2)cc1OC` [A6]: the IC50 is 27 ± 3 µM.
On to `COc1ccc(CNC(=O)c2cc3c(N4CCSCC4)nc(C)cn3n2)cc1` [B3], for which half-maximal inhibition (IC50) was put at 35 ± 12 µM.
Regarding `Cc1ccc(CNC(=O)c2cc3c(N4CCCC4)nc(C)cn3n2)cc1` [A1], the IC50 is > 50 µM and the “reduction of NanoBRET signal” value is “activity only observed at the highest dose; also recorded: weak activity”.
The molecule `Cc1cn2nc(C(=O)NCc3ccc(C(F)(F)F)cc3)cc2c(N2CCCC2)n1` [A4] had an IC50 of 39 ± 6 µM.
`Cc1ccc(CNC(=O)c2cc3c(N4CCSCC4)nc(C)cn3n2)cc1` [B1]: the IC50 worked out at 37 ± 12 µM and the “reduction of NanoBRET signal” value was “active”.
As for `Cc1ccc(CCNC(=O)c2cc3c(N4CCSCC4)nc(C)cn3n2)cc1` [B4], the IC50 was 22 µM and 20 µM.
Still for that read-out and setting: under `Cc1cn2nc(C(=O)NCc3ccc(Cl)cc3)cc2c(N2CCCC2)n1` [A3] stands 23 ± 5 µM; under `CCc1ccc(CNC(=O)c2cc3c(N4CCCC4)nc(C)cn3n2)cc1` [A2], 22 ± 6 µM.
